Assay results from PubChem BioAssay AID2060495 (Molecular Pharmacology Branch, DTP, NCI, 2025).
Blank lines part the entries; values can stand above or below the compound they belong to.

Test system: 521955-158-R2-J5-PDC complex spheroid viability
Assay: Anticancer human tumor 521955-158-R2-J5-PDC patient-derived pancreatic carcinoma cell line growth inhibition [GQUAD]
Details: for IC50: curve of first compound; for viability, T/C: stronger effect = lower value
In short: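 Multi-cell-type spheroids of tumor cells with HUVEC and mesenchymal stem cells, treated with drug combinations. Concentrations descend in half-log steps from near clinical Cmax, or from 10 microM where Cmax is unknown; viability read-out.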

[1] = second compound 0.0316 µM, first compound 0.0316 µM
[2] = second compound 0.0316 µM, first compound 0.1 µM
[3] = second compound 0.0316 µM, first compound 0.316 µM
[4] = second compound 0.0316 µM, first compound 1 µM
[5] = second compound 0.0316 µM, first compound 3.16 µM
[6] = second compound 0.0316 µM, first compound 10 µM
[7] = second compound 0.1 µM, first compound 0.0316 µM
[8] = second compound 0.1 µM, first compound 0.1 µM
[9] = second compound 0.1 µM, first compound 0.316 µM
[10] = second compound 0.1 µM, first compound 1 µM
[11] = second compound 0.1 µM, first compound 3.16 µM
[12] = second compound 0.1 µM, first compound 10 µM
[13] = second compound 0.316 µM, first compound 0.0316 µM
[14] = second compound 0.316 µM, first compound 0.1 µM
[15] = second compound 0.316 µM, first compound 0.316 µM
[16] = second compound 0.316 µM, first compound 1 µM
[17] = second compound 0.316 µM, first compound 3.16 µM
[18] = second compound 0.316 µM, first compound 10 µM
[19] = second compound 1 µM, first compound 0.0316 µM
[20] = second compound 1 µM, first compound 0.1 µM
[21] = second compound 1 µM, first compound 0.316 µM
[22] = second compound 1 µM, first compound 1 µM
[23] = second compound 1 µM, first compound 3.16 µM
[24] = second compound 1 µM, first compound 10 µM
[25] = second compound 3.16 µM, first compound 0.0316 µM
[26] = second compound 3.16 µM, first compound 0.1 µM
[27] = second compound 3.16 µM, first compound 0.316 µM
[28] = second compound 3.16 µM, first compound 1 µM
[29] = second compound 3.16 µM, first compound 3.16 µM
[30] = second compound 3.16 µM, first compound 10 µM
[31] = second compound 10 µM, first compound 0.0316 µM
[32] = second compound 10 µM, first compound 0.1 µM
[33] = second compound 10 µM, first compound 0.316 µM
[34] = second compound 10 µM, first compound 1 µM
[35] = second compound 10 µM, first compound 3.16 µM
[36] = second compound 10 µM, first compound 10 µM
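Also: spheroids exposed to agents for one week before reading.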
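For viability, T/C in this document: 100% = DMSO vehicle control viability.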

IC50 (second compound 0.0316 µM): > 10000 nM
IC50 (second compound 0.1 µM): > 10000 nM
IC50 (second compound 0.316 µM): < 31.6 nM
IC50 (second compound 1 µM): < 31.6 nM
IC50 (second compound 3.16 µM): < 31.6 nM
IC50 (second compound 10 µM): < 31.6 nM
SMILES: C=CC(=O)N1CCN(c2nc(=O)n(-c3c(C)ccnc3C(C)C)c3nc(-c4c(O)cccc4F)c(F)cc23)C(C)C1 (stereo unspecified) + Cc1cnc(CNC(=O)c2c(=O)c3ccc(N4CCCN(C)CC4)nc3n3c2sc2ccccc23)cn1
viability, T/C [1]: 81%
viability, T/C [2]: 70.8%
viability, T/C [3]: 84.4%
viability, T/C [4]: 79.2%
viability, T/C [5]: 77%
viability, T/C [6]: 72.2%
viability, T/C [7]: 60.3%
viability, T/C [8]: 55.3%
viability, T/C [9]: 56.1%
viability, T/C [10]: 57.3%
viability, T/C [11]: 61.5%
viability, T/C [12]: 52.9%
viability, T/C [13]: 36.6%
viability, T/C [14]: 32.1%
viability, T/C [15]: 33.7%
viability, T/C [16]: 46.9%
viability, T/C [17]: 49.1%
viability, T/C [18]: 32.1%
viability, T/C [19]: 21.5%
viability, T/C [20]: 20.2%
viability, T/C [21]: 19.7%
viability, T/C [22]: 26.2%
viability, T/C [23]: 21.7%
viability, T/C [24]: 19.3%
viability, T/C [25]: 22.8%
viability, T/C [26]: 17.6%
viability, T/C [27]: 19.9%
viability, T/C [28]: 20.5%
viability, T/C [29]: 25%
viability, T/C [30]: 18.4%
viability, T/C [31]: 18.4%
viability, T/C [32]: 18.5%
viability, T/C [33]: 20.9%
viability, T/C [34]: 18%
viability, T/C [35]: 13.7%
viability, T/C [36]: 15.8%

IC50 (second compound 0.0316 µM): > 10000 nM
IC50 (second compound 0.1 µM): > 10000 nM
IC50 (second compound 0.316 µM): < 31.6 nM
IC50 (second compound 1 µM): < 31.6 nM
IC50 (second compound 3.16 µM): < 31.6 nM
IC50 (second compound 10 µM): < 31.6 nM
SMILES: CC(C)n1c(=O)n(C)c2cnc3cc(F)c(-c4ccc(OCCCN5CCCCC5)nc4)cc3c21 + Cc1cnc(CNC(=O)c2c(=O)c3ccc(N4CCCN(C)CC4)nc3n3c2sc2ccccc23)cn1
viability, T/C [1]: 60.1%
viability, T/C [2]: 53.2%
viability, T/C [3]: 70.5%
viability, T/C [4]: 56%
viability, T/C [5]: 76.2%
viability, T/C [6]: 74.9%
viability, T/C [7]: 44.2%
viability, T/C [8]: 60.9%
viability, T/C [9]: 62.2%
viability, T/C [10]: 54.1%
viability, T/C [11]: 49.7%
viability, T/C [12]: 56.6%
viability, T/C [13]: 31.7%
viability, T/C [14]: 31.4%
viability, T/C [15]: 42.6%
viability, T/C [16]: 40.4%
viability, T/C [17]: 36.7%
viability, T/C [18]: 41.7%
viability, T/C [19]: 20%
viability, T/C [20]: 22.5%
viability, T/C [21]: 19.5%
viability, T/C [22]: 20%
viability, T/C [23]: 22.1%
viability, T/C [24]: 26.8%
viability, T/C [25]: 19.1%
viability, T/C [26]: 17.9%
viability, T/C [27]: 19.6%
viability, T/C [28]: 21.1%
viability, T/C [29]: 24.6%
viability, T/C [30]: 20.4%
viability, T/C [31]: 17.7%
viability, T/C [32]: 19.4%
viability, T/C [33]: 18.9%
viability, T/C [34]: 20%
viability, T/C [35]: 21.1%
viability, T/C [36]: 21.8%

IC50 (second compound 0.0316 µM): < 31.6 nM
IC50 (second compound 0.1 µM): < 31.6 nM
IC50 (second compound 0.316 µM): < 31.6 nM
IC50 (second compound 1 µM): < 31.6 nM
IC50 (second compound 3.16 µM): < 31.6 nM
IC50 (second compound 10 µM): < 31.6 nM
SMILES: CC1COCCN1c1cc(C2(O)CC3CCC(C2)O3)c2cnn(-c3ccn[nH]3)c2n1 (stereo unspecified) + Cc1cnc(CNC(=O)c2c(=O)c3ccc(N4CCCN(C)CC4)nc3n3c2sc2ccccc23)cn1
viability, T/C [1]: 23.8%
viability, T/C [2]: 11.8%
viability, T/C [3]: 15.9%
viability, T/C [4]: 13.4%
viability, T/C [5]: 18.2%
viability, T/C [6]: 8.84%
viability, T/C [7]: 23.1%
viability, T/C [8]: 13%
viability, T/C [9]: 11.2%
viability, T/C [10]: 13.4%
viability, T/C [11]: 15.3%
viability, T/C [12]: 8.46%
viability, T/C [13]: 23.8%
viability, T/C [14]: 14.9%
viability, T/C [15]: 12.8%
viability, T/C [16]: 14.5%
viability, T/C [17]: 15.3%
viability, T/C [18]: 5.38%
viability, T/C [19]: 18.4%
viability, T/C [20]: 13.7%
viability, T/C [21]: 11.1%
viability, T/C [22]: 12.1%
viability, T/C [23]: 10.5%
viability, T/C [24]: 4.62%
viability, T/C [25]: 14.2%
viability, T/C [26]: 13.5%
viability, T/C [27]: 10.7%
viability, T/C [28]: 9.81%
viability, T/C [29]: 6.85%
viability, T/C [30]: 0.99%
viability, T/C [31]: 14.2%
viability, T/C [32]: 13.7%
viability, T/C [33]: 10.6%
viability, T/C [34]: 8.67%
viability, T/C [35]: 6.98%
viability, T/C [36]: 0.78%
